Source: US20120122860A1, “SOLID FORMS OF SULFONAMIDES AND AMINO ACIDS” (Plexxikon, Inc., priority 2009, published 2012)

What was measured:
B-Raf V600E = B-Raf V600E (Homo sapiens, UniProt P15056, V600E); test: Kinase activity assay, B-Raf V600E; format: biochemical; conditions: read-out: activity toward kinase B-Raf V600E, IC50
Kdr = Kdr (Homo sapiens, UniProt P35968); test: Kinase activity assay, Kdr
Src = Src (Homo sapiens, UniProt P12931); test: Kinase activity assay, Src
TrkA = TrkA (Homo sapiens, UniProt P04629); test: Kinase activity assay, TrkA
A-Raf = biological target: T1, A-Raf (Homo sapiens, UniProt P10398); test: Kinase activity assay, A-Raf
T1 sequence (P10398 1-606): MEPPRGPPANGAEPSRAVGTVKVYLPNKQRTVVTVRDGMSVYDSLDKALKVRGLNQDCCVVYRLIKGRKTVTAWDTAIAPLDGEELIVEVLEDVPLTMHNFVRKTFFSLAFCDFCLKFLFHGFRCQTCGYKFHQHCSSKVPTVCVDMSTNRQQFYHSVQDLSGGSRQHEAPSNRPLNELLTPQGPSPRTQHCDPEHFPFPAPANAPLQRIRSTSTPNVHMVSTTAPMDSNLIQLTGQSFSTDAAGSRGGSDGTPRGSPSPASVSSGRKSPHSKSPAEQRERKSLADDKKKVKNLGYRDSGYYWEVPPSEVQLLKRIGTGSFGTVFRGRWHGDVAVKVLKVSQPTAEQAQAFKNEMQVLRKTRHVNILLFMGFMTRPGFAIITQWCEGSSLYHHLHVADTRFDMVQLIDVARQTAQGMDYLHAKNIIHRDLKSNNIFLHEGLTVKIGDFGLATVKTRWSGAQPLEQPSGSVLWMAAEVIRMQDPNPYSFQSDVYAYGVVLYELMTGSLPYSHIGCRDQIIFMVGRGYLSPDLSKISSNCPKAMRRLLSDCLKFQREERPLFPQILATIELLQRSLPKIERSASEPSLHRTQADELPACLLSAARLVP

C-Raf = C-Raf (Homo sapiens, UniProt P04049); test: Kinase activity assay, C-Raf
MAP4K4 = MAP4K4 (Homo sapiens, UniProt O95819); test: Kinase activity assay, MAP4K4
B-Raf = B-Raf (Homo sapiens, UniProt P15056); test: Kinase activity assay, B-Raf; format: biochemical; conditions: read-out: activity toward kinase B-Raf, IC50
Btk = Btk (Homo sapiens, UniProt Q06187); test: Kinase activity assay, Btk
Btk, sequence (Q06187 whole entry): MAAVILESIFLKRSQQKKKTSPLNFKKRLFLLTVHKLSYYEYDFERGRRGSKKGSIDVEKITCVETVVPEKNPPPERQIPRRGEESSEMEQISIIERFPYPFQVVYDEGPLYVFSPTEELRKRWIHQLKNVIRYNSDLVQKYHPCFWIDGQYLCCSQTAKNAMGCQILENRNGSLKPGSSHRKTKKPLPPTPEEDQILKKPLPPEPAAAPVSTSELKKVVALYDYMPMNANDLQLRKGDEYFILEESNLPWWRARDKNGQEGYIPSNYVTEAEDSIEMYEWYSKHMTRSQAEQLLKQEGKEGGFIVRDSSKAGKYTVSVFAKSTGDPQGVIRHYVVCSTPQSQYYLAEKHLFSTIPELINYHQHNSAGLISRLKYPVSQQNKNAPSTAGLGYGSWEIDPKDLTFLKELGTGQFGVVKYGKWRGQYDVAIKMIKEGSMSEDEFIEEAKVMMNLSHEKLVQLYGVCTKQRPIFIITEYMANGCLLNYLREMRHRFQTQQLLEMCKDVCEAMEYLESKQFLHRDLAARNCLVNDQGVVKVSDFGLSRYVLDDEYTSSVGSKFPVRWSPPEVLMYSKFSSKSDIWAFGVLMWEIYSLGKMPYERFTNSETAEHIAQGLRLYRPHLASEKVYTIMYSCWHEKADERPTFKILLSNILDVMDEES

Fms = Fms (Homo sapiens, UniProt P07333); test: Kinase activity assay, Fms
Kit = Kit (Homo sapiens, UniProt P10721); test: Kinase activity assay, Kit
Kit, sequence (P10721 26-976): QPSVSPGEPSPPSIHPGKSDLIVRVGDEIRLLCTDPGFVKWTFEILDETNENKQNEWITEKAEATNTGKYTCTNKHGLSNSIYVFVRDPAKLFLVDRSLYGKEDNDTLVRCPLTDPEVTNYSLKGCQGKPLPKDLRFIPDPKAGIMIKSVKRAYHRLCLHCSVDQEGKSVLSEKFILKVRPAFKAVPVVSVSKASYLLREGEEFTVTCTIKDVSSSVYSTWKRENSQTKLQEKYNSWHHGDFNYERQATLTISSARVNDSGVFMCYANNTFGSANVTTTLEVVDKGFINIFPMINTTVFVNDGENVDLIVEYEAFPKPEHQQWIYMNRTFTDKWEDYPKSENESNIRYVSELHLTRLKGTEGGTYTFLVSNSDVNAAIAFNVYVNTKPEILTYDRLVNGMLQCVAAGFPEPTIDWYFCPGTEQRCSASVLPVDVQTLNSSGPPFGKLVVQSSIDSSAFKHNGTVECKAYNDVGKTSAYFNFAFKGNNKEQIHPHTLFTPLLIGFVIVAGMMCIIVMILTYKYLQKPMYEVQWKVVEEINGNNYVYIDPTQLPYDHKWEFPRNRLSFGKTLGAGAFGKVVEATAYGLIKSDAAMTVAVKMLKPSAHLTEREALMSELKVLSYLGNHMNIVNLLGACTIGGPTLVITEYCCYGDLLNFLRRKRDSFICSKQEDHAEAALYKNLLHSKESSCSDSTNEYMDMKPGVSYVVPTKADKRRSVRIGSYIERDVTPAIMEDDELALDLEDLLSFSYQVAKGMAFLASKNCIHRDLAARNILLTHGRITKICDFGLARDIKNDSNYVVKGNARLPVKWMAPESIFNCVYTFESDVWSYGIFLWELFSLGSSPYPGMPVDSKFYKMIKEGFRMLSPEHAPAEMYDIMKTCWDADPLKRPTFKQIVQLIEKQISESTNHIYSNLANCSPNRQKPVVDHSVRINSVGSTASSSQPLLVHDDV

TEC = biological target: T2, TEC (Homo sapiens, UniProt P42680); test: Kinase activity assay, TEC
T2 sequence (P42680 1-631): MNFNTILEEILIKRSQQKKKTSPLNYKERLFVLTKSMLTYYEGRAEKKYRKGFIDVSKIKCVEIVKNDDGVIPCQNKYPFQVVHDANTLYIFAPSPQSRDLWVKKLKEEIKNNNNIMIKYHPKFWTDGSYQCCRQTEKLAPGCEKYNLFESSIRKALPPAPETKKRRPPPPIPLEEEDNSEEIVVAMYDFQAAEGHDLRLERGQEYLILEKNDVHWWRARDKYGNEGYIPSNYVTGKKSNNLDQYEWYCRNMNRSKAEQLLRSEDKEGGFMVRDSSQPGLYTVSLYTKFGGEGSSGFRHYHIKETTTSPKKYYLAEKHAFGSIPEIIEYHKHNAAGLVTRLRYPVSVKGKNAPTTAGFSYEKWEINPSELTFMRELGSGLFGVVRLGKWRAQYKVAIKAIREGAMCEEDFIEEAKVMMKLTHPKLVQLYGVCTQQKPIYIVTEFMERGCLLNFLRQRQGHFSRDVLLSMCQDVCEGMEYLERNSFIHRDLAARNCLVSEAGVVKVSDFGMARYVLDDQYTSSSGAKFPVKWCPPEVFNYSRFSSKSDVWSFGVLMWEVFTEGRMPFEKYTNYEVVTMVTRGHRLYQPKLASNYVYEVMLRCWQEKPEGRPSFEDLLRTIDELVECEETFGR

Flt1 = Flt1 (Homo sapiens, UniProt P17948); test: Kinase activity assay, Flt1
PI3Kα = PI3Kα (Homo sapiens, UniProt P42336); test: Kinase activity assay, PI3Kα
PI3Kα, sequence (P42336 whole entry): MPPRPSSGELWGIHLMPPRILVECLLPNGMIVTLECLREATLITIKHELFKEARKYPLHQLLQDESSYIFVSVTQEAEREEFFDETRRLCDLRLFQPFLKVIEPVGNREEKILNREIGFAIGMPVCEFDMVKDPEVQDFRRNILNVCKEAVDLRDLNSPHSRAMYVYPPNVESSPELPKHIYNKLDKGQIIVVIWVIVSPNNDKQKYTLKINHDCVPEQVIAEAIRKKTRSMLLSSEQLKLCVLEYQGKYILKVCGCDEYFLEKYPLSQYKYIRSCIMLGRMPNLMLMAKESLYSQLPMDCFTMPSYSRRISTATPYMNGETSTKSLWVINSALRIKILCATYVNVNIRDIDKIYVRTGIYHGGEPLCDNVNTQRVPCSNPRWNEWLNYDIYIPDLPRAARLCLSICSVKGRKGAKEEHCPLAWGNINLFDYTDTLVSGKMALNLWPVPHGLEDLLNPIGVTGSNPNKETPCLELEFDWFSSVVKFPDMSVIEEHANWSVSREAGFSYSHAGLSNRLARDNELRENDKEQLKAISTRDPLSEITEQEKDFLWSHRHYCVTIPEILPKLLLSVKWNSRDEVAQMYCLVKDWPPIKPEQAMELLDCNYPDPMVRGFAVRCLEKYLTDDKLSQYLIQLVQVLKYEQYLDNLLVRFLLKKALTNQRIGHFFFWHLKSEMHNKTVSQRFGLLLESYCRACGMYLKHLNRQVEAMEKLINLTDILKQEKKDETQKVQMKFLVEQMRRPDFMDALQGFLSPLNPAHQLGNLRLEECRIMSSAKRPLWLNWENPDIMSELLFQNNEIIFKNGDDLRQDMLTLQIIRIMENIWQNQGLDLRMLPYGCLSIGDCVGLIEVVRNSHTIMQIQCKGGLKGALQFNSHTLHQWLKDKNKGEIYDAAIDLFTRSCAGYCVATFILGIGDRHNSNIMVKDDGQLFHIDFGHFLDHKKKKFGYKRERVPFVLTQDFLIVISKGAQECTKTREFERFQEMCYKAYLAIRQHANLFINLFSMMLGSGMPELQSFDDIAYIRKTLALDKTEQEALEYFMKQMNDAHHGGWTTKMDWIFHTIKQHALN
PI3Kα, sequence (P27986 whole entry partner): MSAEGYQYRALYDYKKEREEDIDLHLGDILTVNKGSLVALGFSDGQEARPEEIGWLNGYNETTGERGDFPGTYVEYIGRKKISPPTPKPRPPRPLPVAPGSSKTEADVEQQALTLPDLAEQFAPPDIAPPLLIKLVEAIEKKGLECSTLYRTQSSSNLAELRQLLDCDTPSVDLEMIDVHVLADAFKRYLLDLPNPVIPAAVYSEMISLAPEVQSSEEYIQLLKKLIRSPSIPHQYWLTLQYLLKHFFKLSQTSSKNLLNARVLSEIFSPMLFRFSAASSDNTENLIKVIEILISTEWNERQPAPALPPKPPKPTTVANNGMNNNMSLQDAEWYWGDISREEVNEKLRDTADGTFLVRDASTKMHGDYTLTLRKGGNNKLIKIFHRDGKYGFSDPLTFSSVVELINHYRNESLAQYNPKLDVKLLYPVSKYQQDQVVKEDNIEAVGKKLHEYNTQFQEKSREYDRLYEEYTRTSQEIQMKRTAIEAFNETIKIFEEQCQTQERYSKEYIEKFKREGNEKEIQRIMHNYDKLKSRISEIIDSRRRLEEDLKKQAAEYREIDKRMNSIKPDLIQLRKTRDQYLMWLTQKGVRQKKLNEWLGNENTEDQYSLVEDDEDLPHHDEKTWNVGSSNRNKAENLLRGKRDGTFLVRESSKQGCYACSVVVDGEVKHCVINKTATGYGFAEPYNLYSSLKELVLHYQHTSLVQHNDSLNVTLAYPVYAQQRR

Measured: IC50

Kdr, sequence (P35968 20-1356): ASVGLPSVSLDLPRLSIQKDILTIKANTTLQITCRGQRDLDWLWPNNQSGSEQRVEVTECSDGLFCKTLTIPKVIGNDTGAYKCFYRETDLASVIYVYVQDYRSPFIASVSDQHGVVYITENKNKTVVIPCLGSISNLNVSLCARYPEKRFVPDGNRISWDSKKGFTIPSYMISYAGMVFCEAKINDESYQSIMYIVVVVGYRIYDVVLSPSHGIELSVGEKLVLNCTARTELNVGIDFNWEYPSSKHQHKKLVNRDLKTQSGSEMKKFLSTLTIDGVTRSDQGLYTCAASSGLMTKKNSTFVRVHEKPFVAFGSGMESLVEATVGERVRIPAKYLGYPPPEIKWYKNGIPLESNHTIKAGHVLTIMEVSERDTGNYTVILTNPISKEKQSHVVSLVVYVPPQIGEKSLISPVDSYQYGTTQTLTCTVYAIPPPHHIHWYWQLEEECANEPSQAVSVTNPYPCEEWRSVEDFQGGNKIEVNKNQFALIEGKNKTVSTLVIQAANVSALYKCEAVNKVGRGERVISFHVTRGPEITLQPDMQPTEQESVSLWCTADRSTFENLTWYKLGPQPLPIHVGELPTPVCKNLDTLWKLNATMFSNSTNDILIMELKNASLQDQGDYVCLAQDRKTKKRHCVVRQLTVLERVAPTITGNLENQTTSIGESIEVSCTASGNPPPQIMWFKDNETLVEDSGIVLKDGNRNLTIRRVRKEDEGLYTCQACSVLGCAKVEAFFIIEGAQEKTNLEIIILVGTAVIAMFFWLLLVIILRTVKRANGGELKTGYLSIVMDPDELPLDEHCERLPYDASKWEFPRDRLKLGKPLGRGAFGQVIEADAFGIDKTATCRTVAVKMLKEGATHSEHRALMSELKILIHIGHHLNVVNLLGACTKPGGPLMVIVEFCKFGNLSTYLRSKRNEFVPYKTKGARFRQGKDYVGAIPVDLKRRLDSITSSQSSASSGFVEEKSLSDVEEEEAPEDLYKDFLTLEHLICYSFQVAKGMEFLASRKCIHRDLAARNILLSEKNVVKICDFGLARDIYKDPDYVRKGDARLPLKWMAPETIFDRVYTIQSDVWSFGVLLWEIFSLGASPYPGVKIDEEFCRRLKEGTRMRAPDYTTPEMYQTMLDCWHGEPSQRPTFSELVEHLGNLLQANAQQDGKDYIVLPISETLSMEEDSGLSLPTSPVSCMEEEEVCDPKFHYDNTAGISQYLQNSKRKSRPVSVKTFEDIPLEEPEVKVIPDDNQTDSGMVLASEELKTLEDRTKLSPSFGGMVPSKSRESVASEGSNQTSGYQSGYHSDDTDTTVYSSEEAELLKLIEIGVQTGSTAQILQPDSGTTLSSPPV

COc1cnc2[nH]cc(C(=O)c3c(F)ccc(NS(=O)(=O)c4ncn[nH]4)c3F)c2c1 [P-2061, 2H-[1,2,4]Triazole-3-sulfonic acid [2,4-difluoro-3-(5-methoxy-1H-pyrrolo[2,3-b]pyridine-3-carbonyl)-phenyl]-amide]
≤ 10 µM: B-Raf V600E | Kdr | Src | TrkA | A-Raf | C-Raf | MAP4K4

CCCCS(=O)(=O)Nc1ccc(F)c(C(=O)c2c[nH]c3ncc(-c4cnn(C)c4)cc23)c1F [P-2302, Butane-1-sulfonic acid {2,4-difluoro-3-[5-(1-methyl-1H-pyrazol-4-yl)-1H-pyrrolo[2,3-b]pyridine-3-carbonyl]-phenyl}-amide]
not listed: A-Raf | C-Raf | MAP4K4 | PI3Kα
≤ 10 µM: all other assays above

CCCS(=O)(=O)Nc1ccc(F)c(C(=O)c2c[nH]c3ncc(C#CCOC)cc23)c1F [P-2239, Propane-1-sulfonic acid {2,4-difluoro-3-[5-(3-methoxy-prop-1-ynyl)-1H-pyrrolo[2,3-b]pyridine-3-carbonyl]-phenyl}-amide]
not listed: Btk | TEC | Flt1 | PI3Kα
≤ 10 µM: all other assays above

CCCS(=O)(=O)Nc1ccc(F)c(C(=O)c2c[nH]c3ncc(-c4cn[nH]c4)cc23)c1F [P-2174, Propane-1-sulfonic acid {2,4-difluoro-3-[5-(1H-pyrazol-4-yl)-1H-pyrrolo[2,3-b]pyridine-3-carbonyl]-phenyl}-amide]
not listed: A-Raf | C-Raf | MAP4K4 | Flt1
≤ 10 µM: all other assays above

CCCS(=O)(=O)Nc1ccc(F)c(C(=O)c2c[nH]c3ncc(-c4ccc(NC(C)=O)nc4)cc23)c1F [P-2193, N-(5-{3-[2,6-Difluoro-3-(propane-1-sulfonylamino)-benzoyl]-1H-pyrrolo[2,3-b]pyridin-5-yl}-pyridin-2-yl)-acetamide]
not listed: TrkA | A-Raf | Btk | TEC
≤ 10 µM: all other assays above

CCCCS(=O)(=O)Nc1ccc(F)c(C(=O)c2c[nH]c3ncc(-c4cnn(C)c4)cc23)c1 [P-2432, Butane-1-sulfonic acid {4-fluoro-3-[5-(1-methyl-1H-pyrazol-4-yl)-1H-pyrrolo[2,3-b]pyridine-3-carbonyl]-phenyl}-amide]
not listed: TrkA | A-Raf | PI3Kα
≤ 10 µM: all other assays above

CCCS(=O)(=O)Nc1ccc(F)c(C(=O)c2c[nH]c3ncc(CCCOC)cc23)c1F [P-2240, propane-1-sulfonic acid {2,4-difluoro-3-[5-(3-methoxy-propyl)-1H-pyrrolo[2,3-b]pyridine-3-carbonyl]-phenyl}-amide]
not listed: Btk | Fms | TEC | Flt1 | PI3Kα
≤ 10 µM: all other assays above

O=C(c1c(F)ccc(NS(=O)(=O)C(F)(F)F)c1F)c1c[nH]c2ncc(-c3ccc(F)cc3)cc12 [P-2344, N-{2,4-Difluoro-3-[5-(4-fluoro-phenyl)-1H-pyrrolo[2,3-b]pyridine-3-carbonyl]-phenyl}-C,C,C-trifluoro-methanesulfonamide]
≤ 10 µM: B-Raf | B-Raf V600E | Fms | Kdr | Kit | Src | TrkA

Cn1cc(-c2cnc3[nH]cc(C(=O)c4c(F)ccc(NS(=O)(=O)C(F)(F)F)c4F)c3c2)cn1 [P-2345, N-{2,4-Difluoro-3-[5-(1-methyl-1H-pyrazol-4-yl)-1H-pyrrolo[2,3-b]pyridine-3-carbonyl]-phenyl}-C,C,C-trifluoro-methanesulfonamide]
≤ 10 µM: B-Raf | B-Raf V600E | Btk | Kdr | Kit | Src | TrkA

COc1ccnc2[nH]cc(C(=O)c3cccc(NS(=O)(=O)c4ccc(C(F)(F)F)cc4)c3F)c12 [P-2060, N-[2-Fluoro-3-(4-methoxy-1H-pyrrolo[2,3-b]pyridine-3-carbonyl)-phenyl]-4-trifluoromethyl-benzenesulfonamide]
≤ 10 µM: B-Raf | B-Raf V600E | Kdr | Src | TrkA | C-Raf

CCCS(=O)(=O)Nc1ccc(F)c(C(=O)c2c[nH]c3ncc(-c4ccc(S(=O)(=O)NC5CC5)cc4)cc23)c1F [P-2168, N-Cyclopropyl-4-{3-[2,6-difluoro-3-(propane-1-sulfonylamino)-benzoyl]-1H-pyrrolo[2,3-b]pyridin-5-yl}-benzenesulfonamide]
not listed: A-Raf | MAP4K4 | TEC | Flt1 | PI3Kα
≤ 10 µM: all other assays above

CCCS(=O)(=O)Nc1ccc(F)c(C(=O)c2c[nH]c3ncc(-c4ccc(N)nc4)cc23)c1F [P-2214, Propane-1-sulfonic acid {3-[5-(6-amino-pyridin-3-yl)-1H-pyrrolo[2,3-b]pyridine-3-carbonyl]-2,4-difluoro-phenyl}-amide]
not listed: TrkA | A-Raf
≤ 10 µM: all other assays above

CCCS(=O)(=O)Nc1ccc(F)c(C(=O)c2c[nH]c3ncc(-c4ccn[nH]4)cc23)c1F [P-2176]
not listed: A-Raf | C-Raf | TEC | Flt1 | PI3Kα
≤ 10 µM: all other assays above

CCCCS(=O)(=O)Nc1ccc(F)c(C(=O)c2c[nH]c3ncc(-c4ccc(F)cc4)cc23)c1F [P-2301, Butane-1-sulfonic acid {2,4-difluoro-3-[5-(4-fluoro-phenyl)-1H-pyrrolo[2,3-b]pyridine-3-carbonyl]-phenyl}-amide]
≤ 10 µM: B-Raf | B-Raf V600E | Fms | Kdr | Kit | Src | TrkA | MAP4K4
